# Source: patent publication US12653883B2 (priority 2018, dated 2026)
# Several values for one entry are separate records, joined by “and”; a condition that tells them apart may be missing. Equal entries are not always repeated.
# Assays:
# Balb/c mice = settings: mouse, in vivo
# C57BL/6J mice = settings: mouse, in vivo
smiles,measurement,setting,value
C[C@@H]1CCN(C(=O)CC#N)C[C@@H]1N(C)c1ncnc2[nH]ccc12 [Tofacitinib],"Mean antigen-specific T-cells, IFNg+ (% of CD8)",Balb/c mice,13 % of CD8 and 12.9 % of CD8
same,Increase in luciferase expression by pretreatment,C57BL/6J mice,~60 fold
